Article PMC10247784, “Physiological activation of human and mouse bitter taste receptors by bile acids” (Communications Biology, 2023)

Target: T1, mouse Tas2r108 (Mus musculus, UniProt Q9JKT3)
T1 construct: expressed in transfected cells; host or cells: HEK293T-Gα16gust44
T1 sequence (Q9JKT3 1-297): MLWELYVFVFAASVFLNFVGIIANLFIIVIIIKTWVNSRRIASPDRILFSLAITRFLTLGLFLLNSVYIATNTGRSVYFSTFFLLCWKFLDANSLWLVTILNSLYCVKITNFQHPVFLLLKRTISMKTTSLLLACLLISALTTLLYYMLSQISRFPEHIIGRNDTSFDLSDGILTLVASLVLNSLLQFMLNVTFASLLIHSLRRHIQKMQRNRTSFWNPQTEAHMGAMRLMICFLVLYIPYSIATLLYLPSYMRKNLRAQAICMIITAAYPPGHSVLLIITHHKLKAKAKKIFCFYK
Experiment: Calcium imaging assay (FLIPR), HEK293T-Gα16gust44 cells transfected with mouse Tas2r108
Type: cell-based
Protocol: This set of bile acids was chosen because of their commercial availability in high purities, their diversity within the class of bile acids and their previous detection and quantitation in human blood. Stock solutions were prepared in DMSO.
As basal growth medium for the HEK293T-Gα16gust44 cell line[17],[59] served Dulbecco’s modified eagle medium (DMEM) (Thermo Fisher Scientific, Darmstadt, Germany) supplemented with 10 % fetal bovine serum (Sigma-Aldrich, Steinheim, Germany), 2 mM L-glutamine (Sigma-Aldrich, Steinheim, Germany), 100 units/ml penicillin (Sigma Aldrich, Steinheim, Germany) and 100 µg/ml streptomycin (Sigma Aldrich, Steinheim, Germany). Growth conditions were 37 °C, 5 % CO2 and saturated air-humidity[60].
HEK293T-Gα16gust44 cells were seeded on poly-D-lysine (10 µg/ml) coated 96-well plates to reach a confluence of 40-60 % the next day. For transient transfection 150 ng of plasmid DNA containing the receptor of interest and 0.3 µl lipofectamine 2000 (Thermo Fisher Scientific, Darmstadt, Germany) per well were used and transfection took place according to the manual of lipofectamine 2000. […] The empty vector DNA (mock) was transfected as negative control[14],[41].
Cells were loaded using the calcium-sensitive fluorescent dye Fluo-4-AM (Abcam, Cambridge, Great Britain) in the presence of 2.5 mM probenecid (Sigma-Aldrich, Steinheim, Germany) the day after transfection[13],[41]. 1 h after loading, cells were washed with C1 buffer using a BioTek Cell Washer, incubated in the dark for half an hour and washed again. For automated agonist application and measurement of fluorescence changes, a FLIPR^TETRA device (Molecular Devices, San José, United States) was used. Viability of cells was tested by application of 100 nM Somatostatin 14 (Bachem, Bubendorf, Switzerland)[42].
Measured data were negative control corrected by subtracting the signal of the mock-transfected cells and exported to Microsoft Excel using the FLIPR software ScreenWorks 4.2. In Microsoft Excel software, standardization of maximum fluorescence intensities to the basal fluorescence and normalization to the buffer-only control was done to calculate the relative fluorescence changes (ΔF/F).
Initial screening experiments performed in duplicate wells were confirmed by at least one replication and representative traces were selected for display. All dose-response relationships were determined by three independent experiments (biological replicates) performed in duplicates (technical replicates). Threshold concentrations, defined as lowest substance concentrations leading to statistically significant elevated fluorescence changes in receptor-transfected cells compared with empty vector-transfected cells, were determined using SigmaPlot with Student’s t-test to evaluate statistical significance (p < 0.01).

`C[C@H](CCC(=O)O)[C@H]1CC[C@H]2[C@@H]3[C@H](O)C[C@@H]4C[C@H](O)CC[C@]4(C)[C@H]3C[C@H](O)[C@]12C` [Cholic Acid, cholic acid] showed an RLU (Time 0 s) of 0 RLU, an RLU (Time 2 s) of 6.931 RLU and an RLU (Time 4 s) of 8.7879 RLU. It also gave an RLU (Time 6 s) of 7.879 RLU, an RLU (Time 8 s) of 1.863 RLU and an RLU (Time 12 s) of 5.906 RLU. For the same compound, the RLU (Time 14 s) was 3.861 RLU, the RLU (Time 16 s) was 1.935 RLU and the RLU (Time 18 s) was -12.1137 RLU. It also gave an RLU (Time 137.562 s) of 234.064 RLU, an RLU (Time 143.562 s) of 197.377 RLU and an RLU (Time 149.562 s) of 197.423 RLU. It also gave an RLU (Time 155.562 s) of 210.935 RLU, an RLU (Time 161.562 s) of 218.751 RLU and an RLU (Time 167.562 s) of 184.375 RLU. For the same compound, the RLU (Time 173.562 s) was 173.738 RLU, the RLU (Time 179.562 s) was 175.807 RLU and the RLU (Time 185.562 s) was 185.91 RLU. It also gave an RLU (Time 191.562 s) of 162.947 RLU, an RLU (Time 197.562 s) of 167.018 RLU and an RLU (Time 203.562 s) of 164.056 RLU. For the same compound, the RLU (Time 209.562 s) was 161.279 RLU, the RLU (Time 215.562 s) was 154.776 RLU and the RLU (Time 221.562 s) was 158.451 RLU. It also gave an RLU (Time 227.562 s) of 139.492 RLU, an RLU (Time 233.562 s) of 152.204 RLU and an RLU (Time 239.562 s) of 73.7327 RLU. It also gave an RLU (Time 245.562 s) of 142.097 RLU, an RLU (Time 293.562 s) of 160.558 RLU and an RLU (Time 299.562 s) of 159.088 RLU. It also gave an RLU (Time 305.562 s) of 175.817 RLU, an RLU (Time 311.562 s) of 159.088 RLU and an RLU (Time 317.562 s) of 162.782 RLU. For the same compound, the RLU (Time 323.562 s) was 182.257 RLU, the RLU (Time 329.562 s) was 162.985 RLU and the RLU (Time 335.562 s) was 195.196 RLU. It also gave an RLU (Time 341.562 s) of 184.414 RLU, an RLU (Time 347.562 s) of 175.395 RLU and an RLU (Time 353.562 s) of 161.041 RLU. The RLU (Time 359.562 s) was 176.226 RLU, the “Activation threshold concentration Tas2r108” value (p < 0.01 vs empty vector) was 100 µM and the RLU (time 18.797 s) was 17.792 RLU. The RLU (time 20.797 s) was -23.002 RLU, the RLU (time 22.797 s) was -57.7927 RLU and the RLU (time 24.797 s) was -48.9168 RLU. For the same compound, the RLU (time 26.797 s) was -17.0044 RLU, the RLU (time 28.797 s) was 22.9392 RLU and the RLU (time 30.797 s) was 32.9758 RLU. For the same compound, the RLU (time 32.797 s) was 53.0645 RLU, the RLU (time 34.797 s) was 83.8222 RLU and the RLU (time 36.797 s) was 93.8063 RLU. It also gave an RLU (time 38.797 s) of 138.967 RLU, an RLU (time 40.797 s) of 140.665 RLU and an RLU (time 42.797 s) of 165.846 RLU. It also gave an RLU (time 44.797 s) of 192.868 RLU, an RLU (time 46.797 s) of 190.046 RLU and an RLU (time 48.797 s) of 199.412 RLU. The RLU (time 50.797 s) was 213.089 RLU, the RLU (time 52.797 s) was 215.082 RLU and the RLU (time 54.797 s) was 250.612 RLU. The RLU (time 56.797 s) was 250.502 RLU, the RLU (time 58.797 s) was 257.511 RLU and the RLU (time 60.797 s) was 256.774 RLU. It also gave an RLU (time 62.797 s) of 238.682 RLU, an RLU (time 64.797 s) of 249.009 RLU and an RLU (time 66.797 s) of 305.929 RLU. It also gave an RLU (time 68.797 s) of 280.306 RLU, an RLU (time 70.797 s) of 276.637 RLU and an RLU (time 72.797 s) of 284.565 RLU. For the same compound, the RLU (time 74.797 s) was 263.421 RLU, the RLU (time 76.797 s) was 265 RLU and the RLU (time 78.797 s) was 262.578 RLU. It also gave an RLU (time 80.797 s) of 288.384 RLU, an RLU (time 82.797 s) of 280.368 RLU and an RLU (time 84.797 s) of 274.722 RLU. For the same compound, the RLU (time 86.797 s) was 270.305 RLU, the RLU (time 88.797 s) was 275.266 RLU and the RLU (time 90.797 s) was 279.283 RLU. For the same compound, the RLU (time 92.797 s) was 261.98 RLU, the RLU (time 94.797 s) was 257.248 RLU and the RLU (time 96.797 s) was 285.43 RLU. For the same compound, the RLU (time 98.797 s) was 259.515 RLU, the RLU (time 100.797 s) was 270.732 RLU and the RLU (time 102.797 s) was 264.325 RLU. It also gave an RLU (time 104.797 s) of 245.741 RLU, an RLU (time 106.797 s) of 235.309 RLU and an RLU (time 108.797 s) of 255.707 RLU. The RLU (time 110.797 s) was 240.509 RLU, the RLU (time 112.797 s) was 233.706 RLU and the RLU (time 114.797 s) was 230.518 RLU. The RLU (time 116.797 s) was 242.495 RLU, the RLU (time 118.797 s) was 239.456 RLU and the RLU (time 120.797 s) was 255.452 RLU. For the same compound, the RLU (time 122.797 s) was 242.932 RLU, the RLU (time 124.797 s) was 218.082 RLU and the RLU (time 126.797 s) was 235.026 RLU. For the same compound, the RLU (time 128.797 s) was 232.943 RLU, the RLU (time 130.797 s) was 235.505 RLU and the RLU (time 132.797 s) was 229.818 RLU. The RLU (time 134.797 s) was 212.202 RLU and the RLU (time 136.797 s) was 197.953 RLU.
